According to ChEMBL document CHEMBL1154649, “Anti-HBV agents. Part 3: preliminary structure-activity relationships of tetra-acylalisol A derivatives as potent hepatitis B virus inhibitors” (Bioorg Med Chem Lett, 2009):

What was measured:
[1] = Selectivity index, ratio of CC50 for human HepG2(2.2.15) cells to IC50 for HBV early antigen secretion; format: functional
[2] = Cmax in Sprague-Dawley rat at 10 mg/kg, ig; format: ADME, organism-based; design: dose 10 mg/kg, route intragastric; conditions: in vivo, po
[3] = Tmax in Sprague-Dawley rat at 10 mg/kg, ig; format: ADME, organism-based; design: dose 10 mg/kg, route intragastric; conditions: in vivo, po
[4] = Drug level in Sprague-Dawley rat blood at 2 mg/kg, iv after 1 hr; format: ADME, organism-based; design: dose 2 mg/kg, route intravenous; conditions: read-out: Drug uptake
[5] = Drug level in Sprague-Dawley rat blood at 2 mg/kg, iv after 8 hrs; format: ADME, organism-based; design: dose 2 mg/kg, route intravenous; conditions: read-out: Drug uptake
[6] = Drug level in Sprague-Dawley rat blood at 2 mg/kg, iv after 24 hrs; format: ADME, organism-based; design: dose 2 mg/kg, route intravenous; conditions: read-out: Drug uptake
Hepatitis B virus [7] = experiment: Antiviral activity against HBV assessed as inhibition of viral surface antigen secretion; format: functional, organism-based
[8] = Drug level in Sprague-Dawley rat blood at 10 mg/kg, ig after 4 hrs; format: ADME, organism-based; design: dose 10 mg/kg, route intragastric; conditions: po, read-out: Drug uptake
[9] = Drug level in Sprague-Dawley rat blood at 10 mg/kg, ig after 24 hrs; format: ADME, organism-based; design: dose 10 mg/kg, route intragastric; conditions: po, read-out: Drug uptake
[10] = Half life in Sprague-Dawley rat at 2 mg/kg, iv; format: ADME, organism-based; design: dose 2 mg/kg, route intravenous; conditions: in vivo
[11] = Drug level in Sprague-Dawley rat blood at 2 mg/kg, iv after 0.25 hrs; format: ADME, organism-based; design: dose 2 mg/kg, route intravenous; conditions: read-out: Drug uptake
Rattus norvegicus [12] = experiment: Oral bioavailability in Sprague-Dawley rat at 10 mg/kg; format: ADME, organism-based; conditions: in vivo
[13] = Drug level in Sprague-Dawley rat blood at 2 mg/kg, iv after 0.5 hrs; format: ADME, organism-based; design: dose 2 mg/kg, route intravenous; conditions: read-out: Drug uptake
[14] = Initial plasma concentration n Sprague-Dawley rat at 2 mg/kg, iv; format: ADME, organism-based; design: dose 2 mg/kg, route intravenous
[15] = Drug level in Sprague-Dawley rat blood at 2 mg/kg, iv after 4 hrs; format: ADME, organism-based; design: dose 2 mg/kg, route intravenous; conditions: read-out: Drug uptake
Hepatitis B virus [16] = experiment: Antiviral activity against HBV assessed as inhibition of viral early antigen secretion; format: functional, organism-based
[17] = Drug level in Sprague-Dawley rat blood at 10 mg/kg, ig after 1 hr; format: ADME, organism-based; design: dose 10 mg/kg, route intragastric; conditions: po, read-out: Drug uptake
[18] = Drug level in Sprague-Dawley rat blood at 10 mg/kg, ig after 0.083 hrs; format: ADME, organism-based; design: dose 10 mg/kg, route intragastric; conditions: po, read-out: Drug uptake
Rattus norvegicus [19] = experiment: AUC in Sprague-Dawley rat at 10 mg/kg, ig; format: ADME, organism-based, Plasma; design: dose 10 mg/kg, route intragastric; conditions: in vivo, po
[20] = Drug level in Sprague-Dawley rat blood at 10 mg/kg, ig after 0.5 hrs; format: ADME, organism-based; design: dose 10 mg/kg, route intragastric; conditions: po, read-out: Drug uptake
[21] = Selectivity index, ratio of CC50 for human HepG2(2.2.15) cells to IC50 for HBV surface antigen secretion; format: functional
[22] = Drug level in Sprague-Dawley rat blood at 10 mg/kg, ig after 8 hrs; format: ADME, organism-based; design: dose 10 mg/kg, route intragastric; conditions: po, read-out: Drug uptake
Rattus norvegicus [23] = experiment: Clearance in Sprague-Dawley rat at 2 mg/kg, iv; format: ADME, organism-based; design: dose 2 mg/kg, route intravenous; conditions: in vivo
[24] = Cytotoxicity against human HepG2(2.2.15) cells; format: cell-based
[25] = Drug level in Sprague-Dawley rat blood at 2 mg/kg, iv after 0.083 hrs; format: ADME, organism-based; design: dose 2 mg/kg, route intravenous; conditions: read-out: Drug uptake
[26] = Drug level in Sprague-Dawley rat blood at 10 mg/kg, ig after 0.25 hrs; format: ADME, organism-based; design: dose 10 mg/kg, route intragastric; conditions: po, read-out: Drug uptake
[27] = Drug level in Sprague-Dawley rat blood at 2 mg/kg, iv after 2 hrs; format: ADME, organism-based; design: dose 2 mg/kg, route intravenous; conditions: read-out: Drug uptake
[28] = Drug level in Sprague-Dawley rat blood at 10 mg/kg, ig after 2 hrs; format: ADME, organism-based; design: dose 10 mg/kg, route intragastric; conditions: po, read-out: Drug uptake
Rattus norvegicus [29] = experiment: AUC in Sprague-Dawley rat at 2 mg/kg, iv; format: ADME, organism-based, Plasma; design: dose 2 mg/kg, route intravenous; conditions: in vivo
[30] = Volume of distribution at steady state in Sprague-Dawley rat at 2 mg/kg, iv; format: ADME, organism-based; design: dose 2 mg/kg, route intravenous; conditions: in vivo, read-out: Vdss

Compound: CC(=O)O[C@@H](C[C@@H](C)C1=C2C[C@H](OC(C)=O)[C@H]3[C@@]4(C)CCC(=O)C(C)(C)[C@@H]4CC[C@]3(C)[C@@]2(C)CC1)[C@@H](OC(C)=O)C(C)(C)OC(C)=O
- Ratio CC50/IC50 [1]: >145
- Cmax [2]: 383 ng/mL
- Tmax [3]: 1 h
- concentration at 1 h [4]: 156 ng/mL
- concentration at 8 h [5]: 5.02 ng/mL
- concentration at 24 h [6]: 2.19 ng/mL
- IC50 (Hepatitis B virus [7]): 0.0048 mM
- concentration at 4 h [8]: 55.9 ng/mL
- concentration at 24 h [9]: 2.03 ng/mL
- half-life [10]: 97.8 min
- concentration at 0.25 h [11]: 363 ng/mL
- F (Rattus norvegicus [12]): 40.9%
- concentration at 0.5 h [13]: 246 ng/mL
- C0 [14]: 567 ng/mL
- concentration at 4 h [15]: 14.5 ng/mL
- IC50 (Hepatitis B virus [16]): 0.011 mM
- concentration at 1 h [17]: 383 ng/mL
- concentration at 0.083 h [18]: 8.6 ng/mL
- AUC (Rattus norvegicus [19]): 1040 ng·h/mL
- concentration at 0.5 h [20]: 170 ng/mL
- Ratio CC50/IC50 [21]: >333
- concentration at 8 h [22]: 6.28 ng/mL
- CL (Rattus norvegicus [23]): 3.87 L/h/kg
- CC50 [24]: > 1.6 mM
- concentration at 0.083 h [25]: 567 ng/mL
- concentration at 0.25 h [26]: 70 ng/mL
- concentration at 2 h [27]: 71.8 ng/mL
- concentration at 2 h [28]: 290 ng/mL
- AUC (Rattus norvegicus [29]): 510 ng·h/mL
- Vd [30]: 5.73 L/kg

Compound: Nc1ccn([C@@H]2CS[C@H](CO)O2)c(=O)n1 [LAMIVUDINE]
- Ratio CC50/IC50 [1]: 1.6
- IC50 (Hepatitis B virus [7]): 13 mM
- IC50 (Hepatitis B virus [16]): 22 mM
- Ratio CC50/IC50 [21]: 2.7
- CC50 [24]: 35 mM
